# Laboratory results from patent US7880010B2, “Crystalline forms of a dimethylphenyl compound” (Theravance, Inc., priority 2006, dated 2011).
# Key:
# [1] = Dynamic moisture sorption (DMS) assessment; type: physicochemical
# Description: A dynamic moisture sorption (DMS) assessment (also known as a moisture sorption-desorption profile) was performed for a hand ground samples of Form I, Form II and Form III of crystalline biphenyl-2-ylcarbamic acid 1-[2-(4-{[(R)-2-(3-formylamino-4-hydroxyphenyl)-2-hydroxyethylamino]methyl}-2,5-dimethylphenylcarbamoyl)-ethyl]piperidin-4-yl ester using a VTI atmospheric microbalance, SGA-100 system (VTI Corp., Hialeah, Fla. 33016). A sample size of approximately 10 mg was used and the humidity was set at the ambient value at the start of the analysis. A typical DMS analysis consisted of three scans: ambient to 2% relative humidity (RH), 2% RH to 90% RH, 90% RH to 5% RH at a scan rate of 5% RH/step. The mass was measured every two minutes and the RH was changed to the next value (±5% RH) when the mass of the sample was stable to within 0.01% for 5 consecutive points. Representative DMS traces for Form I, Form II and Form III are shown in FIGS. 10, 11 and 12, respectively.
# [2] = Differential scanning calorimetry, thermal stability; type: physicochemical; conditions: DSC, FIG. 5
# Description: Differential scanning calorimetry (DSC) was performed using a TA Instruments Model Q-100 module with a Thermal Analyst controller. Data were collected and analyzed using TA Instruments Thermal Solutions software. A sample of about 1 mg was accurately weighed into an aluminum pan with lid. The sample was evaluated using a linear heating ramp of 5° C./min from ambient temperature to approximately 300° C. The DSC cell was purged with dry nitrogen during use. Representative DSC traces for samples of Form I, Form II and Form III of crystalline biphenyl-2-ylcarbamic acid 1-[2-(4-{[(R)-2-(3-formylamino-4-hydroxyphenyl)-2-hydroxyethylamino]methyl}-2,5-dimethylphenylcarbamoyl)ethyl]piperidin-4-yl ester are shown in FIGS. 4, 5 and 6, respectively.
# bronchoconstriction = assay: Einthoven assay, duration of bronchoprotection; conditions: guinea pigs, 10 μg/mL
"hygroscopicity ([1]; DMS, 2% RH to 90% RH, reversible sorption/desorption profile)","weight gain ([1]; humidity range of 40% RH to 75% RH, DMS trace FIG. 11)",weight gain ([1]; humidity range of 40% relative humidity to 75% relative humidity),"deliquescence ([1]; moisture sorption/desorption, exposure to atmospheric moisture)",thermal stability [2],Structure (SMILES),duration of significant bronchoprotection (bronchoconstriction)
< 5%,about 0.3 weight %,less than 0.5%,not deliquescent,excellent thermal stability,"Cc1cc(NC(=O)CCN2CCC(OC(=O)Nc3ccccc3-c3ccccc3)CC2)c(C)cc1CNC[C@H](O)c1ccc(O)c(NC=O)c1 [Form II, Biphenyl-2-ylcarbamic acid 1-[2-(4-{[(R)-2-(3-Formylamino-4-hydroxyphenyl)-2-hydroxyethylamino]methyl}-2,5-dimethylphenylcarbamoyl)ethyl]piperidin-4-yl Ester]",–
–,–,–,–,–,C[N+]1(C)[C@@H]2C[C@@H](OC(=O)C(O)(c3cccs3)c3cccs3)C[C@H]1[C@@H]1O[C@@H]12 [tiotropium],greater than 72 hours
